Results taken from patent publication US10517889B2, “Modulators of SMAD7 expression” (Ionis Pharmaceuticals, Inc., priority 2017, dated 2019).
Strand notation (5' to 3'): a small letter for the sugar, then the base; units joined by * are phosphorothioate-linked, units joined directly phosphodiester-linked; [ ] holds rarer units or linkages, { } end groups; capitals alone tell only the bases. e = 2'-O-(2-methoxyethyl) (MOE); [5mC] = 5-methylcytosine; d = 2'-deoxy (DNA)

Assays:
human SMAD7 mRNA [1] = assay: Antisense inhibition of human SMAD7 mRNA expression in Hep3B cells by 5-10-5 MOE gapmers, single concentration, electroporation, RT-PCR (Example 1, Study 1 and 2); type: cell-based
Outline: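 Readout is percent SMAD7 mRNA inhibition versus untreated cells, measured by qRT-PCR (RTS5062) and corrected for total RNA by RIBOGREEN. Oligonucleotide, 5,000 nM or 15,000 nM, was delivered by electroporation into Hep3B cells at 20,000 per well. RNA was collected about 24 h later.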

human SMAD7 mRNA [2] = assay: Dose-dependent inhibition of human SMAD7 mRNA expression in Hep3B cells (Example 3, Study 1 and 2); type: cell-based; conditions: electroporation; for % inhibition of SMAD7 mRNA expression: approximately 16 hours; for IC50: Study 1 (312.5-20000 nM)
Outline: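 Hep3B cells, 20,000 per well, electroporated with antisense oligonucleotide at 0.31, 1.25, 5.00 or 20.00 μM (first series) or 0.74, 2.22, 6.67 or 20.00 μM (second series). After ~16 h, SMAD7 mRNA measured by RT-qPCR (RTS5062), normalised to RIBOGREEN total RNA. Percent inhibition vs untreated cells; IC50 derived.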

[3] = electroporation, 15,000 nM antisense oligonucleotide (Study 2), 5-10-5 MOE gapmers targeting SEQ ID NO: 1 and 2
[4] = 312.5 nM, Study 1, relative to untreated control cells
[5] = Study 2, electroporation with 15,000 nM antisense oligonucleotide, 5-10-5 MOE gapmers targeting SEQ ID NO: 1 and 2

## 771418 (e[5mC]*e[5mC]*eG*e[5mC]*e[5mC]*dA*d[5mC]*d[5mC]*dG*dG*d[5mC]*d[5mC]*d[5mC]*d[5mC]*dA*eT*eG*e[5mC]*eG*e[5mC]; antisense) [compound 771418]
Human SMAD7 mRNA [1]; [3]
  % inhibition of SMAD7 mRNA expression: 60%
Human SMAD7 mRNA [2]; [4]
  % inhibition of SMAD7 mRNA expression: 3%
Human SMAD7 mRNA [2]; 1250.0 nM, Study 1
  % inhibition of SMAD7 mRNA expression: 0%
Human SMAD7 mRNA [2]; 5000.0 nM, Study 1
  % inhibition of SMAD7 mRNA expression: 0%
Human SMAD7 mRNA [2]; 20000.0 nM, Study 1
  % inhibition of SMAD7 mRNA expression: 0%

## 771439 (eG*eG*e[5mC]*eT*eG*d[5mC]*dG*d[5mC]*dG*d[5mC]*d[5mC]*dG*dG*d[5mC]*dG*eG*eG*e[5mC]*eG*e[5mC]; antisense) [compound 771439]
Human SMAD7 mRNA [1]; [5]
  % Inhibition: 48%
Human SMAD7 mRNA [2]; [4]
  % inhibition of SMAD7 mRNA expression: 0%
Human SMAD7 mRNA [2]; 1250.0 nM, Study 1
  % inhibition of SMAD7 mRNA expression: 24%
Human SMAD7 mRNA [2]; 5000.0 nM, Study 1
  % inhibition of SMAD7 mRNA expression: 49%
Human SMAD7 mRNA [2]; 20000.0 nM, Study 1
  % inhibition of SMAD7 mRNA expression: 55%
Human SMAD7 mRNA [2]
  IC50: 9 µM

## 771441 (e[5mC]*eG*eA*eG*eG*dG*d[5mC]*dG*dG*d[5mC]*dT*dG*d[5mC]*dG*d[5mC]*eA*eG*eG*e[5mC]*eT; antisense) [compound 771441]
Human SMAD7 mRNA [1]; electroporation with 15,000 nM antisense oligonucleotide (Study 2), 5-10-5 MOE gapmers targeting SEQ ID NO: 1 and 2
  % Inhibition of SMAD7 mRNA: 60%
Human SMAD7 mRNA [1]; [3]
  % inhibition of SMAD7 mRNA expression: 10%
Human SMAD7 mRNA [2]; [4]
  % inhibition of SMAD7 mRNA expression: 0%
Human SMAD7 mRNA [2]; 1250.0 nM, Study 1
  % inhibition of SMAD7 mRNA expression: 5%
Human SMAD7 mRNA [2]; 5000.0 nM, Study 1
  % inhibition of SMAD7 mRNA expression: 45%
Human SMAD7 mRNA [2]; 20000.0 nM, Study 1
  % inhibition of SMAD7 mRNA expression: 64%
Human SMAD7 mRNA [2]
  IC50: 9 µM

## 771444 (eA*eG*e[5mC]*e[5mC]*eT*d[5mC]*dT*dT*dG*dA*d[5mC]*dT*dT*d[5mC]*d[5mC]*eG*eA*eG*eG*eA; antisense) [compound 771444]
Human SMAD7 mRNA [1]; [5]
  % Inhibition: 67%
Human SMAD7 mRNA [1]; electroporation, 5,000 nM, approximately 24 hours, relative to untreated control cells, gapmers targeting SEQ ID NO: 1 and 2
  % inhibition of SMAD7 mRNA expression: 65%
Human SMAD7 mRNA [2]; [4]
  % inhibition of SMAD7 mRNA expression: 0%
Human SMAD7 mRNA [2]; 1250.0 nM, Study 1
  % inhibition of SMAD7 mRNA expression: 0%
Human SMAD7 mRNA [2]; 5000.0 nM, Study 1
  % inhibition of SMAD7 mRNA expression: 9%
Human SMAD7 mRNA [2]; 20000.0 nM, Study 1
  % inhibition of SMAD7 mRNA expression: 29%
Human SMAD7 mRNA [2]
  IC50: > 20 µM

## 771461 (antisense eG*eT*eA*eG*eA*dG*d[5mC]*d[5mC]*dT*d[5mC]*d[5mC]*d[5mC]*d[5mC]*dA*d[5mC]*eT*e[5mC]*eT*e[5mC]*eG) [compound 771461]
Human SMAD7 mRNA [1]; [5]
  % Inhibition: 37%
Human SMAD7 mRNA [2]; [4]
  % inhibition of SMAD7 mRNA expression: 0%
Human SMAD7 mRNA [2]; 1250.0 nM, Study 1
  % inhibition of SMAD7 mRNA expression: 2%
Human SMAD7 mRNA [2]; 5000.0 nM, Study 1
  % inhibition of SMAD7 mRNA expression: 11%
Human SMAD7 mRNA [2]; 20000.0 nM, Study 1
  % inhibition of SMAD7 mRNA expression: 39%
Human SMAD7 mRNA [2]
  IC50: > 20 µM

## 771464 (antisense eG*eA*eG*eA*eG*dG*dG*d[5mC]*dT*d[5mC]*d[5mC]*dT*dG*dG*dA*e[5mC]*eA*e[5mC]*eA*eG) [compound 771464]
Human SMAD7 mRNA [1]; [5]
  % Inhibition: 55%
Human SMAD7 mRNA [2]; [4]
  % inhibition of SMAD7 mRNA expression: 11%
Human SMAD7 mRNA [2]; 1250.0 nM, Study 1
  % inhibition of SMAD7 mRNA expression: 8%
Human SMAD7 mRNA [2]; 5000.0 nM, Study 1
  % inhibition of SMAD7 mRNA expression: 21%
Human SMAD7 mRNA [2]; 20000.0 nM, Study 1
  % inhibition of SMAD7 mRNA expression: 50%
Human SMAD7 mRNA [2]
  IC50: > 20 µM

## 771474 (antisense eG*e[5mC]*eA*eG*e[5mC]*d[5mC]*dG*dA*dT*dT*dT*dT*dG*d[5mC]*dT*e[5mC]*e[5mC]*eG*e[5mC]*eA) [compound 771474]
Human SMAD7 mRNA [1]; [3]
  % inhibition of SMAD7 mRNA expression: 56%
Human SMAD7 mRNA [2]; [4]
  % inhibition of SMAD7 mRNA expression: 3%
Human SMAD7 mRNA [2]; 1250.0 nM, Study 1
  % inhibition of SMAD7 mRNA expression: 4%
Human SMAD7 mRNA [2]; 5000.0 nM, Study 1
  % inhibition of SMAD7 mRNA expression: 21%
Human SMAD7 mRNA [2]; 20000.0 nM, Study 1
  % inhibition of SMAD7 mRNA expression: 52%
Human SMAD7 mRNA [2]
  IC50: 17 µM

## 771479 (antisense eG*eG*eG*eA*eA*d[5mC]*dA*d[5mC]*d[5mC]*dT*dT*dG*dT*dG*dT*eA*e[5mC]*e[5mC]*eA*eA) [compound 771479]
Human SMAD7 mRNA [1]; [5]
  % inhibition of SMAD7 mRNA expression: 58%
Human SMAD7 mRNA [2]; [4]
  % inhibition of SMAD7 mRNA expression: 0%
Human SMAD7 mRNA [2]; 1250.0 nM, Study 1
  % inhibition of SMAD7 mRNA expression: 8%
Human SMAD7 mRNA [2]; 5000.0 nM, Study 1
  % inhibition of SMAD7 mRNA expression: 49%
Human SMAD7 mRNA [2]; 20000.0 nM, Study 1
  % inhibition of SMAD7 mRNA expression: 74%
Human SMAD7 mRNA [2]
  IC50: 7 µM

## 771487 (antisense e[5mC]*eT*eG*e[5mC]*eA*d[5mC]*dG*dG*dT*dA*dA*dA*dG*d[5mC]*d[5mC]*e[5mC]*eG*eT*e[5mC]*e[5mC]) [compound 771487]
Human SMAD7 mRNA [1]; [5]
  % inhibition of SMAD7 mRNA expression: 45%
Human SMAD7 mRNA [2]; [4]
  % inhibition of SMAD7 mRNA expression: 4%
Human SMAD7 mRNA [2]; 1250.0 nM, Study 1
  % inhibition of SMAD7 mRNA expression: 0%
Human SMAD7 mRNA [2]; 5000.0 nM, Study 1
  % inhibition of SMAD7 mRNA expression: 7%
Human SMAD7 mRNA [2]; 20000.0 nM, Study 1
  % inhibition of SMAD7 mRNA expression: 26%
Human SMAD7 mRNA [2]
  IC50: > 20 µM
